Results as given in PubChem BioAssay AID248 (DTP/NCI, 2004).
Several values for one entry are separate records, joined by “and”; a condition that tells them apart may be missing. Equal values may be shown once. Toxic doses and inconclusive results are not listed. Cut-off read from the data, not from the text of the source: active = T/C of 150% or more; inactive = T/C below 125%.

Tested on: L1210 leukemia ip in BDF1 mice, survival T/C
Assay: NCI In Vivo Anticancer Drug Screen. Data for tumor model L1210 Leukemia (intraperitoneal) in B6D2F1 (BDF1) mice
Details: endpoint: mean survival time, higher = longer survival
Method in brief: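 Antitumor effect is assessed in tumor-bearing animals. Survival in the compound arm is compared with a vehicle-dosed control arm and expressed as their quotient.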

[1] = dose: 100.0 mg/kg/injection, schedule: Q01DX009 (ip), vehicle: Klucel (hydroxypropylcellulose) (HPC)
[2] = dose: 100.0 mg/kg/injection, schedule: Q04DX003 (ip), vehicle: Klucel (hydroxypropylcellulose) (HPC)
[3] = dose: 200.0 mg/kg/injection, schedule: Q04DX003 (ip), vehicle: Klucel (hydroxypropylcellulose) (HPC)
[4] = dose: 400.0 mg/kg/injection, schedule: Q01DX009 (ip), vehicle: Klucel (hydroxypropylcellulose) (HPC)
[5] = dose: 400.0 mg/kg/injection, schedule: Q04DX003 (ip), vehicle: Klucel (hydroxypropylcellulose) (HPC)
[6] = dose: 200.0 mg/kg/injection, schedule: Q01DX009 (ip), vehicle: Klucel (hydroxypropylcellulose) (HPC)
[7] = dose: 100.0 mg/kg/injection, schedule: Q01DX001 (ip), vehicle: saline
[8] = dose: 200.0 mg/kg/injection, schedule: Q01DX001 (ip), vehicle: saline
[9] = dose: 400.0 mg/kg/injection, schedule: Q01DX001 (ip), vehicle: saline
[10] = dose: 50.0 mg/kg/injection, schedule: Q04DX003 (ip), vehicle: Klucel (hydroxypropylcellulose) (HPC)
[11] = dose: 50.0 mg/kg/injection, schedule: Q01DX009 (ip), vehicle: saline
[12] = dose: 100.0 mg/kg/injection, schedule: Q04DX002 (ip), vehicle: Klucel (hydroxypropylcellulose) (HPC)
[13] = dose: 200.0 mg/kg/injection, schedule: Q04DX002 (ip), vehicle: Klucel (hydroxypropylcellulose) (HPC)
[14] = dose: 400.0 mg/kg/injection, schedule: Q04DX002 (ip), vehicle: Klucel (hydroxypropylcellulose) (HPC)

Measured: T/C

C[P+](c1ccccc1)(c1ccc(Cl)cc1)c1ccc(Cl)cc1
inactive: dose: 25.0 mg/kg/injection, schedule: Q04DX002 (ip), vehicle: saline 100 % of control | dose: 50.0 mg/kg/injection, schedule: Q04DX002 (ip), vehicle: saline 95 % of control | dose: 100.0 mg/kg/injection, schedule: Q04DX002 (ip), vehicle: saline with Tween-80 116 % of control

Nc1ccc2c(c1)Cc1ccccc1-2
inactive: dose: 100.0 mg/kg/injection, schedule: Q04DX003 (ip), vehicle: saline with Tween-80 101 % of control | dose: 200.0 mg/kg/injection, schedule: Q04DX003 (ip), vehicle: saline with Tween-80 101 % of control

C/C=C/C(=O)Nc1cccc(Cl)c1
inactive: dose: 100.0 mg/kg/injection, schedule: Q01DX009 (ip), vehicle: other 92 % of control | dose: 200.0 mg/kg/injection, schedule: Q01DX009 (ip), vehicle: other 100 % of control

CC(C)(Cc1c[nH]c2ccccc12)NC(=O)c1ccccc1
inactive: [1] 90 % of control | [2] 100 % of control | [3] 98 % of control | [4] 92 % of control | [5] 98 % of control

c1ccc(COc2ccc(Nc3ccccc3)cc2)cc1
inactive: [1] 98 % of control | [2] 106 % of control | [6] 100 % of control | [3] 103 % of control | [4] 102 % of control | [5] 94 % of control

O=C(O)c1[nH]c2c(=O)[nH]c(=O)[nH]c2c1Br
inactive: [7] 102 % of control | [8] 100 % of control | [9] 100 % of control

CNC(=O)NS(=O)(=O)c1ccc([N+](=O)[O-])cc1
inactive: dose: 100.0 mg/kg/injection, schedule: Q01DX001 (ip), vehicle: carboxymethylcellulose (CMC) 95 % of control | dose: 200.0 mg/kg/injection, schedule: Q01DX001 (ip), vehicle: carboxymethylcellulose (CMC) 91 % of control | dose: 400.0 mg/kg/injection, schedule: Q01DX001 (ip), vehicle: carboxymethylcellulose (CMC) 92 % of control

[O-][n+]1c2ccc(Cl)cc2nc2ccc(Cl)cc21
inactive: dose: 25.0 mg/kg/injection, schedule: Q04DX003 (ip), vehicle: Klucel (hydroxypropylcellulose) (HPC) 95 % of control | [10] 93 % of control | [2] 92 % of control and 88 % of control

COc1ccc(OC(C)OCCOCCOC(C)=O)cc1 (stereo not drawn)
inactive: dose: 100.0 mg/kg/injection, schedule: Q04DX002 (ip), vehicle: saline 104 % of control | dose: 200.0 mg/kg/injection, schedule: Q04DX002 (ip), vehicle: saline 93 % of control | dose: 400.0 mg/kg/injection, schedule: Q04DX002 (ip), vehicle: saline 107 % of control

CCC(C)N(CCCOC(=O)c1ccc(N)cc1)C(C)CC (stereo not drawn)
inactive: dose: 12.5 mg/kg/injection, schedule: Q01DX009 (ip), vehicle: saline 106 % of control | dose: 25.0 mg/kg/injection, schedule: Q01DX009 (ip), vehicle: saline 104 % of control | [11] 97 % of control

CCCCC(=O)N/N=C\c1cccc(OCc2ccccc2)c1
inactive: [7] 107 % of control | [8] 102 % of control | [9] 109 % of control

CCCCCCSc1n[nH]c(=O)[nH]c1=O
inactive: [7] 97 % of control | [8] 95 % of control | [9] 108 % of control

NC/C=N/N=C(N)N
inactive: dose: 15.0 mg/kg/injection, schedule: Q01DX Z (ip), vehicle: saline 97 % of control | dose: 30.0 mg/kg/injection, schedule: Q01DX Z (ip), vehicle: saline 96 % of control | dose: 60.0 mg/kg/injection, schedule: Q01DX Z (ip), vehicle: saline 94 % of control | dose: 120.0 mg/kg/injection, schedule: Q01DX Z (ip), vehicle: saline 87 % of control | dose: 120.0 mg/kg/injection, schedule: Q01DX Z (oral), vehicle: saline 101 % of control | dose: 240.0 mg/kg/injection, schedule: Q01DX Z (oral), vehicle: saline 101 % of control | dose: 480.0 mg/kg/injection, schedule: Q01DX Z (oral), vehicle: saline 103 % of control | dose: 960.0 mg/kg/injection, schedule: Q01DX Z (oral), vehicle: saline 98 % of control

O=C(O)c1c(Cl)c([N+](=O)[O-])cc([N+](=O)[O-])c1Cl
inactive: [11] 92 % of control | dose: 100.0 mg/kg/injection, schedule: Q01DX009 (ip), vehicle: saline 92 % of control | dose: 100.0 mg/kg/injection, schedule: Q04DX003 (ip), vehicle: saline 103 % of control | dose: 200.0 mg/kg/injection, schedule: Q01DX009 (ip), vehicle: saline 92 % of control | dose: 200.0 mg/kg/injection, schedule: Q04DX003 (ip), vehicle: saline 99 % of control

CC1(C)CC(=O)C(N=Nc2ccccc2)=C(O)C1
inactive: [12] 105 % of control | [13] 108 % of control | [14] 94 % of control

COc1ccc(NC(=O)Nc2c(C)cc(C)cc2C)cc1
inactive: dose: 100.0 mg/kg/injection, schedule: Q01DX009 (ip), vehicle: gum acacia 94 % of control | dose: 100.0 mg/kg/injection, schedule: Q04DX003 (ip), vehicle: gum acacia 93 % of control | dose: 200.0 mg/kg/injection, schedule: Q01DX009 (ip), vehicle: gum acacia 96 % of control | dose: 200.0 mg/kg/injection, schedule: Q04DX003 (ip), vehicle: gum acacia 95 % of control | dose: 400.0 mg/kg/injection, schedule: Q01DX009 (ip), vehicle: gum acacia 98 % of control | dose: 400.0 mg/kg/injection, schedule: Q04DX003 (ip), vehicle: gum acacia 87 % of control

COC(=O)c1c2ccccc2nc2c1c(C)c(C)c1ccccc12
inactive: [2] 96 % of control | [3] 110 % of control | [5] 101 % of control

O=S(=O)(Cc1ccccc1)C(Br)Br
inactive: dose: 100.0 mg/kg/injection, schedule: Q01DX001 (ip), vehicle: other 106 % of control | [12] 100 % of control | dose: 200.0 mg/kg/injection, schedule: Q01DX001 (ip), vehicle: other 101 % of control | [13] 97 % of control | dose: 400.0 mg/kg/injection, schedule: Q01DX001 (ip), vehicle: other 101 % of control | [14] 103 % of control

c1ccc(CNCCCNCc2ccccn2)nc1
inactive: dose: 50.0 mg/kg/injection, schedule: Q01DX009 (ip), vehicle: saline with Tween-80 93 % of control | dose: 100.0 mg/kg/injection, schedule: Q01DX009 (ip), vehicle: saline with Tween-80 98 % of control

O=[N+]([O-])c1ccc(Oc2c(Cl)c(Cl)c(Cl)c(Cl)c2Cl)c([N+](=O)[O-])c1
inactive: dose: 222.0 mg/kg/injection, schedule: Q01DX Z (ip), vehicle: methylcellulose (MC) 95 % of control | dose: 333.0 mg/kg/injection, schedule: Q01DX Z (ip), vehicle: methylcellulose (MC) 94 % of control | dose: 500.0 mg/kg/injection, schedule: Q01DX Z (ip), vehicle: methylcellulose (MC) 93 % of control

N#CCc1nc2ccccc2[nH]1
inactive: dose: 50.0 mg/kg/injection, schedule: Q01DX009 (ip), vehicle: Klucel (hydroxypropylcellulose) (HPC) 97 % of control | [10] 101 % of control | dose: 100.0 mg/kg/injection, schedule: Q01DX001 (ip), vehicle: Klucel (hydroxypropylcellulose) (HPC) 102 % of control | [1] 98 % of control | [2] 98 % of control | [6] 88 % of control | [3] 101 % of control

CCOc1ccccc1/C=C1\C=C(CC)SC1=O
inactive: dose: 100.0 mg/kg/injection, schedule: Q01DX001 (ip), vehicle: saline with Tween-80 91 % of control | dose: 200.0 mg/kg/injection, schedule: Q01DX001 (ip), vehicle: saline with Tween-80 94 % of control | dose: 400.0 mg/kg/injection, schedule: Q01DX001 (ip), vehicle: saline with Tween-80 91 % of control

Cc1cc(Cc2cc(C)c(N)cc2N)c(N)cc1N
inactive: [7] 88 % of control | [8] 93 % of control | [9] 90 % of control

O=C(NCCCl)Oc1cccc2c1CCCC2
inactive: [1] 87 % of control | [2] 103 % of control | [6] 97 % of control | [3] 100 % of control | [4] 100 % of control | [5] 100 % of control

CCC(CO)(CO)C(=[N-])c1ccccc1O.CCC(CO)(CO)N=Cc1ccccc1O.[Co]
inactive: dose: 50.0 mg/kg/injection, schedule: Q01DX001 (ip), vehicle: saline 98 % of control | [7] 94 % of control | [8] 94 % of control

CCOC(=O)CCN(Cc1ccco1)C(=S)Nc1ccccc1
inactive: dose: 200.0 mg/kg/injection, schedule: Q01DX Z (ip), vehicle: methylcellulose (MC) 89 % of control
